Read-outs that look alike come from different tables or passages of the source. No end group written: not given here.
Columns and labels:
TREK-1 [1] = target: T1, TREK-1 (Mus musculus, UniProt P97438); test: Whole-cell patch-clamp on cultured pyramidal neurons from hippocampus; format: cell-based; design: endogenous in cells; host or cells: primary hippocampal pyramidal neurons from newborn mice; conditions: 10 μM, K+ blockers, at -50 mV, 7 out of 70 neurons
T1 sequence (P97438 1-426): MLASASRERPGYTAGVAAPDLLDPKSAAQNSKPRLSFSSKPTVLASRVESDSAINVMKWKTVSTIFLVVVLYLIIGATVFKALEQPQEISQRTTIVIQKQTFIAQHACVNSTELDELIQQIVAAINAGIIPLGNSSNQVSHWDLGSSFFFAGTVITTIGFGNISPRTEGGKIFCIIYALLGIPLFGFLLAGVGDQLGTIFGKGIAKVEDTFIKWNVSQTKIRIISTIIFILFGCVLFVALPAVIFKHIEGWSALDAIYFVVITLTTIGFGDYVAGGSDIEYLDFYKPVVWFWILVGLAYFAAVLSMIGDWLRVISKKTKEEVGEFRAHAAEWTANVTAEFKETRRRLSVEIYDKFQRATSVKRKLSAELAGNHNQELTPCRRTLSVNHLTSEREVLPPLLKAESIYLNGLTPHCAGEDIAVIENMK
Protocol: A, Cultured pyramidal neuron from hippocampus, with on top, the patch-clamp pipette. Neurons were chosen according to their morphology. B, Current recorded in response to ramps of potential obtained in the various conditions indicated (aa: arachidonic acid: 10 μM, Spadin: 1[…]μM, Fluoxetine: 20 μM). Neurons were recorded in the whole-cell configuration of the patch-clamp technique. In voltage-clamp, ramps of potential from −90 mV to 70 mV were applied every 10 sec. The % variation of the current amplitude was always measured at −50 mV. The currents were recorded in response to such ramps in control conditions and in the presence of a cocktail of potassium blockers suitable to isolate the TREK currents (10 mM tetraethyl ammonium (TEA), 3 mM 4-aminopyridine (4-AP), 50 nM charybdotoxin, 10 μM glibenclamide, 100 nM apamin). […] The blocks were reversible. C, Time course of spadin and fluoxetine effects. Applications are indicated by the horizontal bars.
Cortical neurons were prepared from 14 old mouse embryos whereas hippocampal neurons were prepared from new born mice. Briefly, dissected brain areas were dissociated and neurons were plated on polylysine-treated 35 or 60 mm dishes and maintained in culture in Neurobasal medium supplemented with B27, Glutamax and antibiotics for 2 to 3 weeks before to be used for electrophsysiological or biochemical experiments.

TREK-1 [2] = target: T1, TREK-1; test: Whole-cell patch-clamp on CA3 pyramidal neurons in hippocampus brain slices; format: cell-based; design: a cellular network that endogenously expresses both TREK-1 and NTSR3/Sortilin; from tissue; host or cells: mouse hippocampal brain slices, CA3 pyramidal neurons; conditions: wild-type CA3 neurons, K+ blockers, 10 μM aa, n=12
mice [3] = test: Elevated plus-maze; format: in vivo, mouse; conditions: spadin i.p. 10^-5 M, diazepam i.p. 0.5 mg/kg
Description: Elevated plus-maze. The apparatus consisted of two open and two enclosed arms of the same size (45×5 cm) with walls 15 cm high. The arms, constructed of black acrylic, radiate from a common central platform (5×5 cm) to form a plus sign. Open arms were arranged opposite to one another, as were closed arms. The maze was elevated to a height of 45 cm above floor level. Each mouse was placed in the central platform facing one of the open arms. The number of entries into the open and closed arms and the time spent on the open and closed arms were recorded during a 5 min test period. Time spent in the unprotected open arms as well as the number of entries in open arms in relation to the total of arm entries are used as experimental indices of anxiety.

mice [4] = test: Light/dark exploration; format: in vivo, mouse; conditions: spadin i.p. 10^-5 M, diazepam i.p. 0.5 mg/kg
Protocol: The apparatus consisted of a cage (25×40×20 cm) divided into two compartments by a black partition containing a small opening that allows mouse to move from one compartment to the other. One compartment, comprising […] of the surface area, was made of white plastic and was brightly illuminated. The adjoining smaller compartment was black and dark. Mice were placed in the white compartment and allowed to move freely between the two chambers for 5 minutes. The number of transitions between the two compartments, time spent in the white chamber, and latency to the first transition were recorded. Mice tend to avoid the white compartment. Thus the measures of exploration in this area (time and entrances) were used as experimental indices of anxiety.

mice [5] = test: Staircase test; format: in vivo, mouse; conditions: spadin i.p. 10^-5 M, diazepam i.p. 0.5 mg/kg
Protocol: The apparatus comprised an enclosed staircase consisted of five identical steps (2.5 cm in height×11 cm in width×7.5 cm in length), each made of black plastic. The height of the walls was constant (12.5 cm above the stairs) along the entire length of the staircase. Each mouse was placed individually on the floor of the staircase with its back to the staircase. A step was considered climbed only if the mouse placed all four paws on it. Rearing was recorded when the mouse rose on its hind legs either on the step or against the wall. The number of steps ascended and the number of rearings made in a 3-min period were recorded. Results were expressed as ratio of rearing/step numbers.

NTSR3/Sortilin = target: T2, NTSR3/Sortilin (Homo sapiens, UniProt Q99523); conditions: cited from earlier work; for binding activity / affinity for NTSR3/Sortilin: structure-function studies [15]
T2 sequence (Q99523 78-831): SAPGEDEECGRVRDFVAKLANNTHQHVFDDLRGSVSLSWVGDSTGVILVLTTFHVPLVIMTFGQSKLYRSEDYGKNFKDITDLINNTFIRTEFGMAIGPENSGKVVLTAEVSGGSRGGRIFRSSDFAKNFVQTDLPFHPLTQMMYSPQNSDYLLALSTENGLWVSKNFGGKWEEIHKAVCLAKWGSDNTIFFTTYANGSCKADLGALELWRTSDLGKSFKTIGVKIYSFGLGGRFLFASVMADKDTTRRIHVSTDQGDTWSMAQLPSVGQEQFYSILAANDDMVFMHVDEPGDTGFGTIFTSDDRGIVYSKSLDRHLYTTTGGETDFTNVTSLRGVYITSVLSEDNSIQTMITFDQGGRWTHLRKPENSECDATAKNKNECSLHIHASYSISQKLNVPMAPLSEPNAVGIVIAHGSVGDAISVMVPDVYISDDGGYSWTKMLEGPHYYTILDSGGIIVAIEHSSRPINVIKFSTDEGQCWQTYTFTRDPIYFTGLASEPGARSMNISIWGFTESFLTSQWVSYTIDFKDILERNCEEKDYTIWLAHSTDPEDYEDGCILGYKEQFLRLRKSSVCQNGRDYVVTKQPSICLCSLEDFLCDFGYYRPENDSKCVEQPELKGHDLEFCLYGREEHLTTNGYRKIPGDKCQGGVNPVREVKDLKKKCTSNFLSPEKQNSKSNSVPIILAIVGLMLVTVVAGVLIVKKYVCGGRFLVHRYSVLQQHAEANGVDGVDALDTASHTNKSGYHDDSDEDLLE

[6] = target: TREK-1 channel (expressed by transfection in COS-7 cells); test: cell-based or functional assay
TREK-1 [7] = target: T1, TREK-1; test: Whole-cell patch-clamp on TREK-1 transfected COS-7 cells; format: cell-based; design: GFP; expressed in transfected cells; host or cells: COS-7 (DEAE-dextran transfection); conditions: 500 nM, 10 μM aa, at 0 mV, n=4
Protocol: All electrophysiological experiments were done on COS-7 cells seeded at a density of 20,000 cells/35-mm dish 24 h before transfection. Cells were transfected by the classical DEAE-dextran method with TREK-1-GFP plasmids (0.1 μg/μL). Cells were visualized 48-72 h after transfection using fluorescence.
The whole-cell patch-clamp technique was used to evaluate TREK-1 potassium channel current by using a RK 400 patch-clamp amplifier (Axon Instruments, U.S.A.), as previously described. Currents were lowpass filtered at 3 kHz, digitized at 10 kHz using a 12-bit analog-to-digital converter. […] The bath solution contained (in mM): 150 NaCl, 5 KCl, 3 MgCl2, 1 CaCl2, and 10 HEPES, adjusted to pH 7.4 with NaOH; the patch pipette solution contained (in mM): 155 KCl, 3 MgCl2, 5 EGTA, and 10 HEPES, adjusted to pH 7.2 with KOH. Cells were clamped at −80 mV and voltage changes were either applied by ramp (from −100 to 50 mV, 1 s in duration) or by step (from −100 to 40 mV, 1.5 s in duration). Cells were continuously superfused with a microperfusion system. The pipette capacitance was not subtracted from total membrane capacitance and there was no leak substraction. All experiments were done at room temperature (21° C. to 22° C.) and in the presence of a cocktail of potassium channel inhibitors (K^+ blockers: 10 mM tetraethyl ammonium (TEA), 3 mM 4-aminopyridine (4-AP), 50 nM charybdotoxin, 10 μM glibenclamide, 100 nM apamin).
Pclamp software was used to analyze currents recorded in the whole-cell mode measured at 0 mV. Results are expressed as means±SD. To obtain the IC50 value for dose-dependent inhibition, experimental data were fitted with a standard sigmoidal function.

[8] = target: NTSR3/Sortilin (endogenous, C13NJ microglial cell line); test: cell-based or functional assay
[9] = target: TREK-1 channel (expressed by transfection in COS-7 cells); test: competition with 0.2 nM 125I-spadin on TREK-1 transfected COS-7 cell homogenates, filtration

TREK-1 channel (expressed by transfection in COS-7 cells), sequence (O95069 whole entry): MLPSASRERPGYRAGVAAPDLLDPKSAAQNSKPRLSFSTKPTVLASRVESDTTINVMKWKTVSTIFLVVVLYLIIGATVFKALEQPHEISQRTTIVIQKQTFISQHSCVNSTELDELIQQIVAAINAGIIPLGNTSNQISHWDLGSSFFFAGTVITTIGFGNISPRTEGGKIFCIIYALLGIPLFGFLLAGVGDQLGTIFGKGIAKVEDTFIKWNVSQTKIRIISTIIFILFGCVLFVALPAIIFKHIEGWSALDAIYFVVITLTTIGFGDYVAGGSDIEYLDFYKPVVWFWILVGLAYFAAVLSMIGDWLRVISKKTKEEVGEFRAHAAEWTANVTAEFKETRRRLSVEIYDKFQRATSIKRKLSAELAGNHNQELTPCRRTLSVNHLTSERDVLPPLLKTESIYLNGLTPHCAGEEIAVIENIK

CCCCC/C=C\C/C=C\C/C=C\C/C=C\CCCC(=O)O [arachidonic acid, Arachidonic acid]
increase of remaining current (TREK-1 [1]): about 50%
increase of amplitude of the remaining current (TREK-1 [2]): 23.3+4.8%

CN1C(=O)CN=C(c2ccccc2)c2cc(Cl)ccc21 [diazepam, reference compound]
time spent in the open arms (mice [3]): significantly reduced the time spent into the aversive open arms
number of light/dark transitions (mice [4]): significantly induced an increase
rearing/step numbers ratio (mice [5]): decrease of the rearing/step numbers ratio

Gln^1-Arg^28: peptide Gln1-Arg28 of the NTSR3/Sortilin propeptide, from literature
binding activity / affinity for NTSR3/Sortilin (NTSR3/Sortilin): as efficient on the binding activity as the entire propeptide
binding activity / affinity for NTSR3/Sortilin (NTSR3/Sortilin; listed as Gln^1-Arg^16): very low

NTSR3/Sortilin (expressed by transfection in COS-7 cells) (from UniProt Q99523 78-831) (receptor)
expression of TREK-1 within the plasma membranes (cell surface biotinylation, Western blot) [6]: 6 fold
expression of TREK-1 within the plasma membranes (purified plasma membranes, Western blot) [6]: 3 fold

QDRLDAPPPPAAPLPRWSGPIGVSWGLRAAAAGGAFPRGGRWRR [propeptide, 44 residue N-terminal propeptide released from prosortilin by furin]
Kd (NTSR3/Sortilin; read-out: Kd for the mature receptor): ~5 nM
block of aa stimulated TREK-1 current (TREK-1 [7]): 41±5%

neurotensin (from UniProt P30990 151-163) (peptide)
C13NJ cell migration in wound-healing assay with 10 nM NT (% of migration with 10% FCS) [8]: 35.1%

QDRLDAPPPPAAPLPR [N-terminal fragment Gln1-Arg16 of the full length propeptide]
affinity [9]: 1 µM

APLPRWSGPIGVSWGLR (also: monoiodinated (125I) on Tyr0, an added N-terminal Tyr not in given chain) [125I-spadin]
share of cell-bound 125I-spadin resistant to the acid-NaCl wash (intracellular) on TREK-1 expressing COS-7 cells at 37° C. [6]: 80%

Source: US20120322060A1, “DIAGNOSIS AND MONITORING TREATMENT OF PSYCHIATRIC DISEASES WITH SPADIN AND RELATED METHODS” (CENTRE NATIONAL DE LE RECHERCHE SCIENTIFIQUE - CNRS -, priority 2011, published 2012)
